Measured values reported in patent publication US9238022B2, “Xanthanodien for the treatment of cancer” (priority 2010, dated 2016).
Entries after “also recorded” stand apart in the source; their conditions may differ.

Experiments:
[1] = tested on: ovarian cancer cells JC, NIH:OVCAR-3, SKOV-3; experiment: In vitro cytotoxicity test (Alamar blue, microscopy) on ovarian cancer cells; type: cell-based; conditions: for cytotoxicity towards ovarian cancer cells (in words): 1, 5 and 10 μg/mL
Description: (§1) Cells used in the assays were an ovarian cell line, JC (van Haaften-Day et al. 1983. Cancer Research 43: 3725-3731), OVCAR-3 and SKOV-3, The American Type Culture Collection (ATCC), a melanoma line (MM-An, Byers et al. 1991. Am J Path 139, No 2: 423-435) and normal human diploid fibroblasts primary cultures (Brookes et al. 2002 The EMBO Journal Vol. 21, No. 12: 2936-2945).
(§2) In vitro cytotoxicity tests were performed using a non-fluorescent substrate, Alamar blue (BioSource, Invitrogen, UK) as described by Page et al. (Page B, Page M and Noel C. 1993. International Journal of Oncology 3: 473-476).
(§3) Ovarian cancer cells (1×10^4 or 5×10^4) were seeded in 24-well plates (Costar, USA) and grown in RPMI-1640, supplemented with 6 mM L-glutamine, 10% fetal calf serum (FCS) (Gibco, Invitrogen, UK) and penicillin (100 units/mL) and streptomycin (100 μg/mL), while melanoma cells and normal fibroblasts were grown in Dulbecco's modified Eagle medium (DMEM), also supplemented with L-glutamine and FCS. The cultures were maintained in a humidified atmosphere of 5% CO2 at 37° C.
(§4) The in exponential growth cultures (in triplicates) were treated with the compound, dissolved in dimethyl sulfoxide (DMSO) and added at final concentrations of 1, 5, and 10 μg/mL. In 2 mL medium/well 10% Alamar blue was added and 100 μl of the supernatant of the 24-well plates after 24, 48 and 72 hrs were pipetted into 96-well plates (Costar, USA). Cell viability was measured with a 96-well plate reader (Molecular Devices Ltd, UK).
(§5) Ovarian cancer cells JC, NIH:OVCAR-3, Skov-3, fibroblasts as well as melanoma cancer cells MM-AN were used for cytotoxicity tests with EPD and EPA. The final concentrations of EPD and EPA added to the growth medium were 1, 5 and 10 μg/ml per well.
(§6) Photographs were taken from the ovarian cancer cell line JC, the melanoma cell line MM-An and normal fibroblasts in 24-well plates using a Leica inverted microscope at a magnification of 100 times. Concentrations of EPD ranged 1-10 μg/mL and the experiments were terminated at 48 and 72 hrs (FIGS. 6-8).
Cell viability was measured by adding 10% Alamar Blue (BioSource, Invitrogen, UK) to ovarian cancer cell cultures (OVCAR-3, SKOV-3) to 1, 5 and 10 μg/ml of EPD and to the control cultures (as described above). After 24, 48 and 72 hours incubation, 100 μl of culture supernatant was taken and cell viability measured with a plate reader (Molecular Devices, Ltd, UK) according to the manufacturer's instructions. The results are depicted in FIGS. 3-5 and confirm that the phenomenon observed in the photographs of FIGS. 6-8 is cell death.

[2] = tested on: normal human diploid fibroblasts; experiment: In vitro cytotoxicity test on normal cells; type: cell-based
Description: The cultures were maintained in a humidified atmosphere of 5% CO2 at 37° C.
as §4, §5, §6

melanoma cells MM-AN = experiment: In vitro cytotoxicity test on melanoma cells; type: cell-based
Description: as §1, §2, §3, §4, §5, §6

NIH:OVCAR-3 cells = experiment: Ovarian cancer animal model (i.p. OVCAR-3 ascites); type: in vivo, Balb/c nu/nu mice
Description: In order to assess the efficacy of EPD in the treatment of ovarian cancer, in vivo experiments were performed with Balb/c nu/nu mice (Charles River Laboratories, France). As a model system of advanced ovarian cancer, a total of 20 Balb/c nu/nu mice were inoculated intra-peritoneally (i.p.) with 1.0×10^7 cells NIH:OVCAR-3 cells (American Type Culture Collection (ATCC number: HTB-161™)/200 μl PBS. NIH:OVCAR-3 is an appropriate model system in which to study drug resistance in ovarian cancer. Upon inoculation into the abdominal cavity ascites were formed at first in only 5 mice. One mouse after having developed a large abdomen was sacrificed and the ascites cells were inoculated into the 15 mice which had not developed ascites. Another mouse was sacrificed to freeze down the cells. […] The 15 mice without ascites were devided into 3 groups of 5 mice. One group served as control, one group received the standard chemotherapy cisplatin and one group received the test drug EPD.
Drugs were given 200 μl/mouse i.p. in order to assess their efficacy as anti-tumor drug. The weight of mice when drug-treated varied between 22 and 26 gram, all with a swollen abdomen. Reduction of the swollen abdomen of the mice (resulting from the killing of the OVCAR-3 cells) was then studied.
Eremophila-1(10)-11(13)-dien-12,8β-olide (EPD) was administered at 20 mg/kg body weight. EPD was isolated from Calomeria amaranthoides as described in Example 1 above. The drug was inoculated twice a week into the abdominal cavity of the mice.

leukocytes = conditions: Dupuis & Brisson 1976; cited from earlier work
P388 Leukemia = conditions: NCI screening data 1972; cited from earlier work
[3] = 20 mg/kg i.p. twice a week for 6 weeks

C=C(C(=O)O)[C@@H]1CCC2=CCC[C@H](C)[C@@]2(C)C1 [EPA, eremophila-1(10),11(13)-dien-12-oic acid]
cytotoxicity towards ovarian cancer cells (in words) [1]: non-cytotoxic; also recorded: no cytotoxicity; also recorded: did not show cytotoxic effects | cytotoxicity towards normal fibroblasts (in words) ([2]; 1, 5 and 10 μg/mL): no cytotoxicity | cytotoxicity towards melanoma cells (in words) (melanoma cells MM-AN; 1, 5 and 10 μg/mL): no cytotoxicity

C=C1C(=O)O[C@@H]2CC3=CCC[C@H](C)[C@@]3(C)C[C@H]12 [EPD, eremophila-1(10)-11(13)-dien-12,8β-olide]
effect on cancer cells at 1 μg/mL ([1]; 1 μg/mL, in vitro): many cancer cells were floating in the wells; also recorded: great cell loss was already seen; also recorded: substantial killing of cancer cells | cell death of cancer cells at 5 μg/mL ([1]; 5 μg/mL, 48 hours): Cell death was observed in the majority of cancer cells; also recorded: killed | cell death of cancer cells at 10 μg/mL ([1]; 10 μg/mL, 48 hours): All cells were dead | cytotoxicity towards ovarian cancer cells (in words) [1]: significant activity; also recorded: very clear cytotoxic effects | selectivity, cancer cells over normal cells ([1]; in vitro, compared with normal cells): selectively kills cancer cells over normal cells | effect on normal cells at 5 μg/mL ([2]; 5 μg/mL, 48 hours): not or little affected; also recorded: largely unaffected; also recorded: little affected | effect on normal fibroblasts at 10 μg/mL ([2]; 10 μg/mL, 48 hours): more evidence of cell death | general health, side effects (NIH:OVCAR-3 cells; [3]): looked very healthy; also recorded: did not show any signs of side effects | swelling of the abdomen (ascites) (NIH:OVCAR-3 cells; [3]): reduced during treatment; also recorded: remission of cancer; also recorded: the ascites disappeared | survival (NIH:OVCAR-3 cells; i.p. twice a week for 6 weeks): all the animals survived the study | return of ascites after end of treatment (NIH:OVCAR-3 cells; three mice kept one month without further treatment after 6 weeks of treatment): In one mouse the ascites returned, two mice did not develop ascites again | cell death of cancer cells at 5 μg/mL (melanoma cells MM-AN; 5 μg/mL, 48 hours, MM-An): Cell death was observed in the majority of cancer cells | cell death of cancer cells at 10 μg/mL (melanoma cells MM-AN; 10 μg/mL, 48 hours, MM-An): All cells were dead

C=C1C(=O)O[C@@H]2C[C@@]3(C)CCC[C@H](C)C3=C[C@H]12 [alantolactone]
toxicity to leukocytes (leukocytes): toxic

N.N.[Cl][Pt][Cl] [cisplatin, reference compound]
killing of cancer cells, parallel comparison ([1]; comparison of crude extract, cisplatin and docetaxol, concentration of the drugs not given): all killed; also recorded: completely kill | swelling of the abdomen (ascites) (NIH:OVCAR-3 cells; 5 mg/kg i.p. once a week for 4 weeks): reduced during treatment | general health, side effects (NIH:OVCAR-3 cells; 5 mg/kg i.p. once a week, 4 weeks): got very sick; also recorded: had to be euthanized

CC(=O)O[C@@]12CO[C@@H]1C[C@H](O)[C@@]1(C)C(=O)[C@H](O)C3=C(C)[C@@H](OC(=O)[C@H](O)[C@@H](NC(=O)OC(C)(C)C)c4ccccc4)C[C@@](O)([C@@H](OC(=O)c4ccccc4)[C@H]21)C3(C)C [docetaxol, reference compound]
killing of normal cells, parallel comparison ([2]; concentration of the drugs not given): completely kill

C=C1C(=O)O[C@H]2CC3=CCC[C@H](C)[C@@]3(C)C[C@@H]12 [napthofuranone, (3aβ,4aα,5α,9aβ)-3a,4,4a,5,6,7,9,9a-octahydro 4a,5-dimethyl-3-methylene naphtho[2,3-b]furan-2(3H)-2-one]
in vivo anti-tumor activity (P388 Leukemia): no clear results
